The text below walks through data of ChEMBL document CHEMBL4665642, “Anticancer profile of newly synthesized BRAF inhibitors possess 5-(pyrimidin-4-yl)imidazo[2,1-b]thiazole scaffold” (Bioorg Med Chem, 2019).

One assay relates to SK-MEL-5. As to the kind of experiment: Cytotoxicity against human SK-MEL-5 cells assessed as cell viability at 10 uM incubated for 48 hrs by sulforhodamine B assay relative to control. It counts as functional. The following applies: read-out: Activity. On the technique in general: Sulforhodamine B stains cellular protein and so reports cell mass.
In the next assay the test system is EKVX. As to the kind of experiment: Cytotoxicity against human EKVX cells assessed as cell viability at 10 uM incubated for 48 hrs by sulforhodamine B assay relative to control. The format is functional. The conditions noted are these: read-out: Activity.
The next assay deals with SNB-19. As to the kind of experiment: Cytotoxicity against human SNB-19 cells assessed as cell viability at 10 uM incubated for 48 hrs by sulforhodamine B assay relative to control. The conditions noted are these: read-out: Activity. It counts as functional.
For another assay, the system named is A549. As to the kind of experiment: Cytotoxicity against human A549 cells assessed as cell viability at 10 uM incubated for 48 hrs by sulforhodamine B assay relative to control. The format is functional. The conditions noted are these: read-out: Activity.
The subject of the next assay is T47D. As to the kind of experiment: Cytotoxicity against human T47D cells assessed as cell viability at 10 uM incubated for 48 hrs by sulforhodamine B assay relative to control. It counts as functional. The conditions noted are these: read-out: Activity.
Another assay relates to OVCAR-5. As to the kind of experiment: Cytotoxicity against human OVCAR-5 cells assessed as cell viability at 10 uM incubated for 48 hrs by sulforhodamine B assay relative to control. It counts as functional. The conditions noted are these: read-out: Activity.
Another assay concerns UO-31. As to the kind of experiment: Cytotoxicity against human UO-31 cells assessed as cell viability at 10 uM incubated for 48 hrs by sulforhodamine B assay relative to control. The format is functional. The following applies: read-out: Activity.
A further assay deals with OVCAR-4. As to the kind of experiment: Cytotoxicity against human OVCAR-4 cells assessed as cell viability at 10 uM incubated for 48 hrs by sulforhodamine B assay relative to control. It counts as functional. The conditions noted are these: read-out: Activity.
In another assay the test system is MCF7. As to the kind of experiment: Cytotoxicity against human MCF7 cells assessed as cell viability at 10 uM incubated for 48 hrs by sulforhodamine B assay relative to control. It counts as functional. The conditions noted are these: read-out: Activity.
The subject of the next assay is K562. As to the kind of experiment: Cytotoxicity against human K562 cells assessed as cell viability at 10 uM incubated for 48 hrs by sulforhodamine B assay relative to control. It counts as functional. The conditions noted are these: read-out: Activity.
In another assay the test system is HL-60(TB). As to the kind of experiment: Cytotoxicity against human HL-60(TB) cells assessed as cell viability at 10 uM incubated for 48 hrs by sulforhodamine B assay relative to control. The format is functional. The following applies: read-out: Activity.
For another assay, the system named is PC-3. As to the kind of experiment: Cytotoxicity against human PC-3 cells assessed as cell viability at 10 uM incubated for 48 hrs by sulforhodamine B assay relative to control. It counts as functional. The conditions noted are these: read-out: Activity.
A further assay has as its system MOLT-4. As to the kind of experiment: Cytotoxicity against human MOLT-4 cells assessed as cell viability at 10 uM incubated for 48 hrs by sulforhodamine B assay relative to control. The format is functional. The following applies: read-out: Activity.
The test system of another assay is SF-539. As to the kind of experiment: Cytotoxicity against human SF-539 cells assessed as cell viability at 10 uM incubated for 48 hrs by sulforhodamine B assay relative to control. It counts as functional. The following applies: read-out: Activity.
A further assay has as its system SK-MEL-2. As to the kind of experiment: Cytotoxicity against human SK-MEL-2 cells assessed as cell viability at 10 uM incubated for 48 hrs by sulforhodamine B assay relative to control. It counts as functional. The conditions noted are these: read-out: Activity.
In another assay the test system is HOP-62. As to the kind of experiment: Cytotoxicity against human HOP-62 cells assessed as cell viability at 10 uM incubated for 48 hrs by sulforhodamine B assay relative to control. The conditions noted are these: read-out: Activity. The format is functional.
In another assay the test system is IGROV-1. As to the kind of experiment: Cytotoxicity against human IGROV-1 cells assessed as cell viability at 10 uM incubated for 48 hrs by sulforhodamine B assay relative to control. The format is functional. The following applies: read-out: Activity.
A further assay deals with RPMI-8226. As to the kind of experiment: Cytotoxicity against human RPMI-8226 cells assessed as cell viability at 10 uM incubated for 48 hrs by sulforhodamine B assay relative to control. It counts as functional. The following applies: read-out: Activity.
For the next assay, the system named is HCC 2998. As to the kind of experiment: Cytotoxicity against human HCC 2998 cells assessed as cell viability at 10 uM incubated for 48 hrs by sulforhodamine B assay relative to control. The conditions noted are these: read-out: Activity. The format is functional.
The next assay concerns SK-MEL-28. As to the kind of experiment: Cytotoxicity against human SK-MEL-28 cells assessed as reduction in cell viability by MTT assay. The format is functional, cell-based. For orientation: Tetrazolium dyes change colour on reduction, which living cells bring about.
The test system of a further assay is A-375. As to the kind of experiment: Cytotoxicity against human A-375 cells assessed as reduction in cell viability by MTT assay. It counts as functional, cell-based.

For the compound `O=C(NCCNc1nccc(-c2c(-c3cccc(F)c3)nc3sccn23)n1)C1CCCCC1`, the viability at 10 µM in the assay on SK-MEL-5 is 59.6%; with EKVX, 80.4%; in the assay on SNB-19, 96%; with A549, 78.8%; with T47D, 30.2%; with OVCAR-5, 141%. In addition, the viability at 10 µM in the assay on UO-31 was 40.3%; with OVCAR-4 it was 71.8%; with MCF7 it was 82%; in the assay with K562, 74.2%; in the assay with HL-60(TB), 122%; in the assay with PC-3 it was 75.2%. The viability at 10 µM stood at 55.4% in the assay with MOLT-4; 84.9% in the assay with SF-539; 60.1% in the assay with SK-MEL-2; 109% in the assay on HOP-62; 45.1% in the assay with IGROV-1; 81.6% with RPMI-8226. For the same compound, the viability at 10 µM in the assay on HCC 2998 is 104%.
On to `O=S(=O)(NCCCNc1nccc(-c2c(-c3cccc(F)c3)nc3sccn23)n1)c1ccc(O)cc1`, for which the viability at 10 µM with SK-MEL-5 was determined as 57%; with EKVX, 78.8%; with SNB-19, 77.7%; in the assay with A549 it was 47.1%; with T47D, 48.8%; in the assay on OVCAR-5 it was 113%. For the same compound, the viability at 10 µM in the assay on UO-31 came out at 31.3%; in the assay with OVCAR-4, 82.4%; with MCF7, 32.2%; in the assay on K562 it was 55.1%; in the assay with HL-60(TB), 107%; in the assay with PC-3, 75%. Further, the viability at 10 µM with MOLT-4 was found to be 55.5%; with SF-539, 99.3%; in the assay with SK-MEL-2, 81.3%; in the assay with HOP-62, 89%; with IGROV-1, 32.6%; in the assay with RPMI-8226, 73.6%. Further, in the assay with HCC 2998, the viability at 10 µM turned out to be 100%.
For `O=S(=O)(NCCNc1nccc(-c2c(-c3cccc(F)c3)nc3sccn23)n1)c1ccccc1`, the viability at 10 µM in the assay with SK-MEL-5 came out at 19.1%; in the assay with EKVX, 53.4%; in the assay with SNB-19, 55.9%; with A549, 25.2%; in the assay with T47D it was 18.8%; in the assay on OVCAR-5, 79.6%. Also, the viability at 10 µM was 15.4% with UO-31; 40% with OVCAR-4; 21.7% in the assay on MCF7; 23.9% in the assay with K562; 63.1% in the assay with HL-60(TB); 33.1% in the assay on PC-3. The viability at 10 µM came out at 16.6% in the assay with MOLT-4; 65.5% with SF-539; 51.8% in the assay on SK-MEL-2; 60.2% in the assay on HOP-62; 4.9% in the assay with IGROV-1; 43.5% with RPMI-8226. Also, in the assay with HCC 2998, the viability at 10 µM was 66.3%. The IC50 was 19 µM in the assay with SK-MEL-28 and 11 µM in the assay with A-375.
As for `O=S(=O)(NCCNc1nccc(-c2c(-c3cccc(F)c3)nc3sccn23)n1)c1cccc2ccccc12`, the viability at 10 µM amounted to 88.3% in the assay on SK-MEL-5; 93.9% with EKVX; 96.2% in the assay with SNB-19; 88% with A549; 81.7% with T47D; 127% in the assay on OVCAR-5. The viability at 10 µM in the assay on UO-31 worked out at 59.2%; in the assay on OVCAR-4 it was 105%; in the assay with MCF7 it was 74.6%; in the assay with K562, 78.3%; in the assay on HL-60(TB) it was 116%; in the assay with PC-3 it was 80.2%. Besides, the viability at 10 µM in the assay on MOLT-4 stood at 73.7%; with SF-539, 109%; with SK-MEL-2 it was 104%; with HOP-62, 110%; in the assay on IGROV-1 it was 61%; in the assay with RPMI-8226 it was 83.9%. In addition, in the assay on HCC 2998, the viability at 10 µM was 131%.
`O=S(=O)(NCCCNc1nccc(-c2c(-c3cccc(F)c3)nc3sccn23)n1)c1cccc2ccccc12`: the viability at 10 µM with SK-MEL-5 is 31.8%; with EKVX, 56.1%; in the assay on SNB-19 it was 69%; with A549 it was 45.6%; in the assay on T47D, 18.4%; with OVCAR-5 it was 80.9%. Further, the viability at 10 µM amounted to 20% with UO-31; 40.1% in the assay on OVCAR-4; 37.4% with MCF7; 15.2% in the assay with K562; 53.9% in the assay on HL-60(TB); 41.2% with PC-3. The viability at 10 µM stood at 29.3% in the assay with MOLT-4; 72.8% in the assay on SF-539; 47.8% in the assay with SK-MEL-2; 80.7% in the assay on HOP-62; 22.3% in the assay on IGROV-1; 44.9% with RPMI-8226. Moreover, in the assay with HCC 2998, the viability at 10 µM was 16.3%.
On to `O=C(NCCCNc1nccc(-c2c(-c3cccc(F)c3)nc3sccn23)n1)c1ccc(C(F)(F)F)cc1`, for which the viability at 10 µM in the assay with SK-MEL-5 turned out to be 75.3%; with EKVX it was 72.2%; in the assay on SNB-19, 87.6%; in the assay on A549, 69%; in the assay with T47D it was 62.6%; in the assay on OVCAR-5 it was 126%. The viability at 10 µM with UO-31 is 35.3%; in the assay with OVCAR-4 it was 74.7%; with MCF7 it was 69.7%; with K562, 66.7%; in the assay with HL-60(TB) it was 115%; in the assay with PC-3, 70.8%. For the same compound, the viability at 10 µM in the assay on MOLT-4 worked out at 44.8%; with SF-539 it was 104%; in the assay on SK-MEL-2 it was 98.8%; in the assay with HOP-62, 124%; with IGROV-1, 41.8%; in the assay on RPMI-8226 it was 96.8%. Besides, the viability at 10 µM in the assay with HCC 2998 is 112%.
As for `O=C(NCCCNc1nccc(-c2c(-c3cccc(F)c3)nc3sccn23)n1)C1CCCCC1`, the viability at 10 µM in the assay on SK-MEL-5 is 52.9%; in the assay with EKVX it was 80.8%; in the assay with SNB-19 it was 89.8%; in the assay on A549, 51.6%; with T47D, 37.8%; with OVCAR-5 it was 105%. In addition, the viability at 10 µM worked out at 41% in the assay on UO-31; 85.9% in the assay on OVCAR-4; 36.5% with MCF7; 65.4% with K562; 111% with HL-60(TB); 73.9% in the assay with PC-3. The viability at 10 µM with MOLT-4 was 69.5%; with SF-539, 100%; with SK-MEL-2 it was 78.4%; in the assay on HOP-62 it was 98.2%; in the assay with IGROV-1, 37.5%; with RPMI-8226 it was 80%. The viability at 10 µM in the assay on HCC 2998 was 90.5%.

Usually IC50 stands for the concentration that inhibits the measured activity by half.
